Assays:
Format in all cases: in vivo
tall fescue = test: Turf tolerance field study, tall fescue, Indiana 2004; settings: 14 Days After Treatment, g ai/Ha: penoxsulam 35, imazaquin 104, bispyribac-sodium 75, trifloxysulfuron-sodium 9.2, metsulfuron-methyl 10.4; for Cover: 0 = bare ground, 100 = thick solid stand; for Color: 0 = brown to dead turf, 10 = lush green; for Injury: 0 = no visible injury, 10 = dead turf
Description: (§1) Turf tolerance studies were conducted in monoculture stands of perennial ryegrass and tall fescue. Replicated trials, containing a minimum of three replications and having individual plots ranging in size from 25 to 50 ft. sq (2.3 to 4.6 square meters), were initiated in the late spring when turf was actively growing. […] Natural rainfall and supplemental irrigation, fertilizer, fungicides and insecticides were used to maintain healthy turf throughout the study period. Turf tolerance evaluations were made weekly for 8 weeks after application. Evaluations compared treated and untreated plot areas and consisted of one or all of the following evaluations: 1) visual estimate of turf injury made on a 0 to 10 scale with 0 indicating no visible injury symptoms, 10 being dead turf and 3 or less being commercially acceptable; 2) visual estimate of turf color made on a 0 to 10 scale with 0 being brown to dead turf, 10 being a lush green turf of highest quality and 6.5 being commercially acceptable; 3) visual estimate of turf density made on a 0 to 100 scale with 0 being bare ground, 100 being a thick solid stand of highest quality and 90 percent density being commercially acceptable; 4) visual estimate of turf quality made on a 0 to 10 scale with 0 being brown to dead turf, 10 being a lush green turf of highest quality and 6.5 being commercially acceptable.

perennial ryegrass [1] = test: Turf tolerance field study, perennial ryegrass, Indiana 2004; settings: 21 Days After Treatment, g ai/Ha: penoxsulam 35, imazaquin 104, bispyribac-sodium 75, trifloxysulfuron-sodium 9.2, metsulfuron-methyl 10.4; for Cover: 0 = bare ground, 100 = thick solid stand; for Color: 0 = brown to dead turf, 10 = lush green; for Injury: 0 = no visible injury, 10 = dead turf
Description: as §1

perennial ryegrass [2] = test: Perennial ryegrass turf quality field study, Pennsylvania 2004; settings: perennial ryegrass, 0 = brown to dead turf, 10 = highest quality, g ai/Ha: penoxsulam 35, imazaquin 104, bispyribac-sodium 75, trifloxysulfuron-sodium 9.2, metsulfuron-methyl 10.4; for Turf Quality 4 DAA: 4 Days After Application; for Turf Quality 16 DAA: 16 Days After Application; for Turf Quality 36 DAA: 36 Days After Application
Description: as §1

[3] = system: dandelion, Taraxacum officinale (TAROF); test: Postemergent weed control field study, Pennsylvania 2004, TAROF; settings: Granule formulation, g ai/Ha: penoxsulam 35, imazaquin 104, bispyribac-sodium 75, trifloxysulfuron-sodium 9.2, metsulfuron-methyl 10.4; for Percent Weed Control TAROF 29DAA: 29 Days After Application; for Percent Weed Control TAROF 56DAA: 56 Days After Application
From the text: (§2) The ALS inhibiting herbicides are useful in controlling broadleaf weeds and sedges in turfgrass. They are particularly effective against most important weeds in this application, viz., white clover, Trifolium repens L. (TRFRE); buckhorn plantain, Plantago lanceolata L. (PLALA); dandelion, Taraxacum officinale (TAROF); broadleaf plantain, Plantago major L. (PLAMA); ground ivy, Glechoma hederacea L. (GLEHE); common lespedeza, Lespedeza striata (LESST); pennywort (dollarweed), Hydrocotyle spp (HYDSS); Virginia buttonweed, Diodia virginiana L. (DIQVI) English daisy, Bellis perennis L. (BELPE); annual bluegrass, Poa annua (POANN); and yellow nutsedge, Cypres esculentus L. (CYPES).
(§3) Field studies were conducted in established turfgrass sites containing a natural population of target broadleaf weeds. Replicated trials, containing a minimum of three replications and having individual plots ranging in size from 25 to 50 ft. sq (2.3 to 4.6 square meters), were initiated in the late spring when turf and weeds were actively growing. Granule treatments were uniformly applied to individual plots using a common hand-shaker method. Applications were made in the early morning when dew was present. Natural rainfall and supplemental irrigation were used to maintain healthy turf and active weed growth throughout the study period. Control of each weed species in the study site was made at approximately 2, 4 and 8 weeks after treatment. Control was determined visually by comparing treated and untreated weeds and scored on a 0 to 100 percent scale where 0 corresponds to no control and 100 corresponds to complete kill.

[4] = system: white clover, Trifolium repens L. (TRFRE); test: Postemergent weed control field study, Pennsylvania 2004, TRFRE; settings: g ai/Ha: penoxsulam 35, imazaquin 104, bispyribac-sodium 75, trifloxysulfuron-sodium 9.2, metsulfuron-methyl 10.4; for Percent Weed Control TRFRE 29DAA: 29 Days After Application; for Percent Weed Control TRFRE 56DAA: 56 Days After Application
From the text: as §2
as §3, with “Granule treatments were uniformly applied to individual plots using a common hand-shaker method.” left out

[5] = system: buckhorn plantain, Plantago lanceolata L. (PLALA); test: Postemergent weed control field study, Pennsylvania 2004, PLALA; settings: g ai/Ha: penoxsulam 35, imazaquin 104, bispyribac-sodium 75, trifloxysulfuron-sodium 9.2, metsulfuron-methyl 10.4; for Percent Weed Control PLALA 29DAA: 29 Days After Application; for Percent Weed Control PLALA 56DAA: 56 Days After Application
From the text: as §2
as §3, with “Granule treatments were uniformly applied to individual plots using a common hand-shaker method.” left out

[6] = system: annual bluegrass, Poa annua (POANN); test: Postemergent weed control field study, Pennsylvania 2004, POANN; settings: g ai/Ha: penoxsulam 35, imazaquin 104, bispyribac-sodium 75, trifloxysulfuron-sodium 9.2, metsulfuron-methyl 10.4; for Percent Weed Control POANN 29DAA: 29 Days After Application; for Percent Weed Control POANN 56DAA: 56 Days After Application
From the text: as §2, §3

[7] = system: dandelion, Taraxacum officinale (TAROF); test: Postemergent weed control field study, Pennsylvania 2004, TAROF; settings: Liquid formulation, g ai/Ha: penoxsulam 35, imazaquin 104, bispyribac-sodium 75, trifloxysulfuron-sodium 9.2, metsulfuron-methyl 10.4; for Percent Weed Control TAROF 29DAA: 29 Days After Application; for Percent Weed Control TAROF 56DAA: 56 Days After Application

Row | SMILES | Cover (tall fescue; Granule formulation) | Color (tall fescue; Granule formulation) | Injury (tall fescue; Granule formulation) | Cover (tall fescue; Liquid formulation) | Color (tall fescue; Liquid formulation) | Injury (tall fescue; Liquid formulation) | Cover (perennial ryegrass [1]; Granule formulation) | Color (perennial ryegrass [1]; Granule formulation) | Injury (perennial ryegrass [1]; Granule formulation) | Cover (perennial ryegrass [1]; Liquid formulation) | Color (perennial ryegrass [1]; Liquid formulation) | Injury (perennial ryegrass [1]; Liquid formulation) | Turf Quality 4 DAA (perennial ryegrass [2]; Granule formulation) | Turf Quality 16 DAA (perennial ryegrass [2]; Granule formulation) | Turf Quality 36 DAA (perennial ryegrass [2]; Granule formulation) | Turf Quality 4 DAA (perennial ryegrass [2]; Liquid formulation) | Turf Quality 16 DAA (perennial ryegrass [2]; Liquid formulation) | Turf Quality 36 DAA (perennial ryegrass [2]; Liquid formulation) | Percent Weed Control TAROF 29DAA [3] [%] | Percent Weed Control TAROF 56DAA [3] [%] | also measured
1 | COc1cc(OC)nc(NC(=O)[N-]S(=O)(=O)c2ncccc2OCC(F)(F)F)n1.[Na+] [Trifloxysulfuron-sodium, trifloxysulfuron-sodium] | 70.0 0-100 Scale | 5.8 0-10 Scale | 5.8 0-10 Scale | 51.3 0-100 Scale | 3.8 0-10 Scale | 8.0 0-10 Scale | 87.5 0-100 Scale | 6.8 0-10 Scale | 5.3 0-10 Scale | 57.5 0-100 Scale | 4.0 0-10 Scale | 8.0 0-10 Scale | 9.3 0 to 10 scale | 4.3 0 to 10 scale | 8.3 0 to 10 scale | 7.7 0 to 10 scale | 2.7 0 to 10 scale | 1.3 0 to 10 scale | 80.6 | 40.0 | Percent Weed Control TRFRE 29DAA ([4]; Granule formulation): 80.0%; Percent Weed Control TRFRE 56DAA ([4]; Granule formulation): 56.7%; Percent Weed Control TRFRE 29DAA ([4]; Liquid formulation): 100.0%; Percent Weed Control TRFRE 56DAA ([4]; Liquid formulation): 100.0%; Percent Weed Control PLALA 29DAA ([5]; Granule formulation): 0.0%; Percent Weed Control PLALA 56DAA ([5]; Granule formulation): 11.1%; Percent Weed Control PLALA 29DAA ([5]; Liquid formulation): 0.0%; Percent Weed Control PLALA 56DAA ([5]; Liquid formulation): 33.3%; Percent Weed Control POANN 29DAA ([6]; Granule formulation): 34.5%; Percent Weed Control POANN 56DAA ([6]; Granule formulation): 39.9%; Percent Weed Control POANN 29DAA ([6]; Liquid formulation): 95.4%; Percent Weed Control POANN 56DAA ([6]; Liquid formulation): 77.2%; Percent Weed Control TAROF 29DAA [7]: 98.3%; Percent Weed Control TAROF 56DAA [7]: 100.0%
2 | CC(C)C1(C)N=C(c2nc3ccccc3cc2C(=O)O)NC1=O (centres unmarked) [Imazaquin, imazaquin] | 100.0 0-100 Scale | 9.0 0-10 Scale | 0.5 0-10 Scale | 70.0 0-100 Scale | 5.3 0-10 Scale | 5.3 0-10 Scale | 98.8 0-100 Scale | 8.8 0-10 Scale | 1.8 0-10 Scale | 97.5 0-100 Scale | 8.3 0-10 Scale | 3.3 0-10 Scale | 10.0 0 to 10 scale | 3.0 0 to 10 scale | 3.3 0 to 10 scale | 7.7 0 to 10 scale | 3.3 0 to 10 scale | 7.7 0 to 10 scale | 13.9 | 17.8 | Percent Weed Control TRFRE 29DAA ([4]; Granule formulation): 0.0%; Percent Weed Control TRFRE 56DAA ([4]; Granule formulation): 23.3%; Percent Weed Control TRFRE 29DAA ([4]; Liquid formulation): 22.2%; Percent Weed Control TRFRE 56DAA ([4]; Liquid formulation): 11.1%; Percent Weed Control PLALA 29DAA ([5]; Granule formulation): 22.2%; Percent Weed Control PLALA 56DAA ([5]; Granule formulation): 41.1%; Percent Weed Control PLALA 29DAA ([5]; Liquid formulation): 16.7%; Percent Weed Control PLALA 56DAA ([5]; Liquid formulation): 8.3%; Percent Weed Control POANN 29DAA ([6]; Granule formulation): 31.4%; Percent Weed Control POANN 56DAA ([6]; Granule formulation): 18.1%; Percent Weed Control POANN 29DAA ([6]; Liquid formulation): 8.8%; Percent Weed Control POANN 56DAA ([6]; Liquid formulation): 26.2%; Percent Weed Control TAROF 29DAA [7]: 58.9%; Percent Weed Control TAROF 56DAA [7]: 11.1%
3 | COc1cc(OC)nc(Oc2cccc(Oc3nc(OC)cc(OC)n3)c2C(=O)O)n1 [Bispyribac-sodium, bispyribac-sodium] | 100.0 0-100 Scale | 9.0 0-10 Scale | 0.0 0-10 Scale | 97.5 0-100 Scale | 8.8 0-10 Scale | 2.0 0-10 Scale | 100.0 0-100 Scale | 8.5 0-10 Scale | 1.0 0-10 Scale | 85.0 0-100 Scale | 6.5 0-10 Scale | 4.5 0-10 Scale | 8.7 0 to 10 scale | 7.3 0 to 10 scale | 10.0 0 to 10 scale | 8.0 0 to 10 scale | 5.7 0 to 10 scale | 10.0 0 to 10 scale | 45.0 | 23.3 | Percent Weed Control TRFRE 29DAA ([4]; Granule formulation): 36.1%; Percent Weed Control TRFRE 29DAA ([4]; Liquid formulation): 88.9%; Percent Weed Control TRFRE 56DAA ([4]; Liquid formulation): 55.6%; Percent Weed Control PLALA 29DAA ([5]; Granule formulation): 27.8%; Percent Weed Control PLALA 56DAA ([5]; Granule formulation): 27.8%; Percent Weed Control PLALA 29DAA ([5]; Liquid formulation): 75.6%; Percent Weed Control PLALA 56DAA ([5]; Liquid formulation): 57.8%; Percent Weed Control POANN 29DAA ([6]; Granule formulation): 40.0%; Percent Weed Control POANN 56DAA ([6]; Granule formulation): 28.9%; Percent Weed Control POANN 29DAA ([6]; Liquid formulation): 28.3%; Percent Weed Control POANN 56DAA ([6]; Liquid formulation): 23.3%; Percent Weed Control TAROF 29DAA [7]: 95.7%; Percent Weed Control TAROF 56DAA [7]: 57.1%
